Test results from patent US4556715A, “Nicotinic acid derivatives” (Kyorin Pharmaceutical Co., Ltd., priority 1980, dated 1985).
Like-named read-outs stand apart in the source and are kept apart here.

How the values were obtained:
[1] = test system: serum and liver lipid levels in normal rats; assay: Effects on relative liver weight, serum and liver lipid levels in normal rats (100 mg/kg, 7 days); assay type: in vivo, Male Wistar strain rats
Method: (1) Effects on relative liver weight, serum and liver lipid levels in normal rats
Male Wistar strain rats, weighing 180-210 g were orally administered the present compounds (X=Cl, n1 =2, 3, 4 and n2 =1) and 4-(4-chlorobenzyloxy)benzyl nicotinate (KCD-232), being X=Cl, n1 =1, n2 =1, respectively, which were suspended in 0.5% carboxymethyl cellulose (CMC) solution once a day at a dose of 100 mg/kg b.w. for 7 days. The last administration was occured in rats fasted overnight. At 4 hr later blood was withdrawn from jugular vein, clotted and centrifuged to obtain serum. The liver was rapidly removed and weighed. Total lipids were extracted from the serum and liver, and cholesterol (Ch), triglycerides (TG) and phospholipids (PL) levels were determined.

[2] = test system: serum and liver lipid levels in rats; assay: Serum and liver lipid levels and relative liver weight in rats (100 mg/kg, 10 days); assay type: in vivo, Male rats of the Wistar strain; conditions: for response vs control in vivo at 100 mg/kg: Rattus norvegicus, po; for response vs control in vivo at 100 mg/kg / Relative liver weight, relative to Control (100): in parentheses, Control = (100); for Liver lipid levels Ch / Liver lipid levels PL / Liver lipid levels TG / Relative liver weight / Serum lipid levels Ch / Serum lipid levels PL / Serum lipid levels TG: 100 mg/kg p.o. 10 days, Mean ± S.E. (n = 9)
How it was run: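 Male Wistar rats (160-180 g) on stock diet were dosed orally once daily at 100 mg/kg in 0.5% CMC for 10 days; controls got vehicle. Sacrifice 4 hr after last dose with diet withdrawn; liver weighed. Serum and liver Ch, TG and PL measured colorimetrically after lipid extraction.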

[3] = test system: serum and liver lipid levels in rats; assay: Serum and liver lipid levels and relative liver weight in rats (25 mg/kg, 10 days); assay type: in vivo, male Wistar rats; conditions: Table 4
Method: (3) The present compounds and KCD-232 were orally given to male Wistar rats weighing 160-180 g once a day at a dose of 25 mg/kg b.w. for 10 days. Rats were subjected to fast for 4 hr immediately after the last administration of compounds, thereafter they were sacrificed by decapitation and blood was collected, clotted and centrifuged to obtain serum. The liver was removed quickly and weighed. Total lipids were extracted from the serum and liver, and then the levels of total Ch, TG and PL were determined with colorimetric methods.

in vivo = conditions: mouse, po, p o, male ICR mice
Source text: The present compounds were given to 6 week-old male mice of the ICR strain and their acute toxicity was examined.

[4] = Table 1, 100 mg/kg p.o. 7 days, fasted overnight, mean ± S.E. (n = 6)
[5] = Table 1, in parentheses, Control = (100)
[6] = 25 mg/kg p.o. 10 days, Mean ± S.E. (n = 7)
[7] = in parentheses, Control = (100)

## O=C(OCc1ccc(OCc2ccc(Cl)cc2)cc1)c1cccnc1 [KCD-232, 4-(4-chlorobenzyloxy)benzyl nicotinate, reference compound]
[1]; [4]
  Liver lipid levels Ch: 3.88 ± 0.12 mg/g liver
  Liver lipid levels PL: 36.6 ± 0.7 mg/g liver
  Liver lipid levels TG: 21.45 ± 2.23 mg/g liver
  Serum lipid levels Ch: 58.5 ± 5 mg/dL
  Serum lipid levels PL: 77.7 ± 6.4 mg/dL
  Serum lipid levels TG: 23.4 ± 2.2 mg/dL
[1]; Table 1, 100 mg/kg p.o. 7 days, mean ± S.E. (n = 6)
  Relative liver weight: 3.20 ± 0.10 g/100 g b.w.
[1]; [5]
  Liver lipid levels Ch, relative to Control (100): 110
  Liver lipid levels PL, relative to Control (100): 99
  Liver lipid levels TG, relative to Control (100): 291
  Relative liver weight, relative to Control (100): 104
  Serum lipid levels Ch, relative to Control (100): 77
  Serum lipid levels PL, relative to Control (100): 76
  Serum lipid levels TG, relative to Control (100): 69
[1]; last administration in rats fasted overnight
  liver TG level (in words): remarkably rose liver TG level
[2]; 240 h, Table 2, read-out: Liver lipid levels PL, relative to Control (100)
  response vs control in vivo at 100 mg/kg: 99.2%
[2]; 240 h, Table 3, read-out: Liver lipid levels PL, relative to Control (100)
  response vs control in vivo at 100 mg/kg: 99.7%
[2]; Table 2, read-out: Liver lipid levels Ch, relative to Control (100)
  response vs control in vivo at 100 mg/kg: 104%
[2]; Table 2, read-out: Liver lipid levels TG, relative to Control (100)
  response vs control in vivo at 100 mg/kg: 63.3%
[2]; Table 2, read-out: Serum lipid levels Ch, relative to Control (100)
  response vs control in vivo at 100 mg/kg: 72.5%
[2]; Table 2, read-out: Serum lipid levels PL, relative to Control (100)
  response vs control in vivo at 100 mg/kg: 67.3%
[2]; Table 2, read-out: Serum lipid levels TG, relative to Control (100)
  response vs control in vivo at 100 mg/kg: 32.7%
[2]; Table 3, read-out: Liver lipid levels Ch, relative to Control (100)
  response vs control in vivo at 100 mg/kg: 103%
[2]; Table 3, read-out: Liver lipid levels TG, relative to Control (100)
  response vs control in vivo at 100 mg/kg: 65.2%
[2]; Table 3, read-out: Serum lipid levels Ch, relative to Control (100)
  response vs control in vivo at 100 mg/kg: 70%
[2]; Table 3, read-out: Serum lipid levels PL, relative to Control (100)
  response vs control in vivo at 100 mg/kg: 62.1%
[2]; Table 3, read-out: Serum lipid levels TG, relative to Control (100)
  response vs control in vivo at 100 mg/kg: 36.1%
[2]; Table 2
  Liver lipid levels Ch: 3.15 ± 0.08 mg/g liver
  Liver lipid levels PL: 37.8 ± 0.6 mg/g liver
  Liver lipid levels TG: 4.00 ± 0.28 mg/g liver
  Relative liver weight: 4.05 ± 0.05 g/100 g b.w.
  Serum lipid levels Ch: 62.8 ± 3 mg/dL
  Serum lipid levels PL: 100 ± 4.6 mg/dL
  Serum lipid levels TG: 40.5 ± 2.7 mg/dL
  Relative liver weight, relative to Control (100): 105
[2]; Table 3
  Liver lipid levels Ch: 2.39 ± 0.07 mg/g liver
  Liver lipid levels PL: 36.1 ± 0.4 mg/g liver
  Liver lipid levels TG: 4.67 ± 0.42 mg/g liver
  Relative liver weight: 3.71 ± 0.07 g/100 g b.w.
  Serum lipid levels Ch: 68.3 ± 3.1 mg/dL
  Serum lipid levels PL: 96.8 ± 3.4 mg/dL
  Serum lipid levels TG: 45.3 ± 3.5 mg/dL
  Relative liver weight, relative to Control (100): 98
[3]; [6]
  Liver lipid levels Ch: 2.98 ± 0.08 mg/g liver
  Liver lipid levels PL: 40.2 ± 0.6 mg/g liver
  Liver lipid levels TG: 4.36 ± 0.65 mg/g liver
  Relative liver weight: 3.72 ± 0.07 g/100 g b.w.
  Serum lipid levels Ch: 63.5 ± 3.1 mg/dL
  Serum lipid levels PL: 89 ± 4.4 mg/dL
  Serum lipid levels TG: 31.3 ± 2.9 mg/dL
[3]; [7]
  Liver lipid levels Ch, relative to Control (100): 91.7
  Liver lipid levels PL, relative to Control (100): 105.8
  Liver lipid levels TG, relative to Control (100): 58.6
  Relative liver weight, relative to Control (100): 105
  Serum lipid levels Ch, relative to Control (100): 81.4
  Serum lipid levels PL, relative to Control (100): 82.3
  Serum lipid levels TG, relative to Control (100): 82.8
In vivo
  LD50: 345 mg/kg
